Data on 8 molecules can be found in ChEMBL document CHEMBL1134415, “Potent and selective ET-A antagonists. 2. Discovery and evaluation of potent and water soluble N-(6-(2-(aryloxy)ethoxy)-4-pyrimidinyl)sulfonamide derivatives” (J Med Chem, 2001).

A short description of assay [1]: Ability to inhibit specific binding of [125I]- -ET-1 to rat A 10 cells which express endothelin A receptor.
Assay [2] has as its target T1, Endothelin-1 receptor (Homo sapiens, UniProt P25101).
T1 sequence (P25101 whole entry): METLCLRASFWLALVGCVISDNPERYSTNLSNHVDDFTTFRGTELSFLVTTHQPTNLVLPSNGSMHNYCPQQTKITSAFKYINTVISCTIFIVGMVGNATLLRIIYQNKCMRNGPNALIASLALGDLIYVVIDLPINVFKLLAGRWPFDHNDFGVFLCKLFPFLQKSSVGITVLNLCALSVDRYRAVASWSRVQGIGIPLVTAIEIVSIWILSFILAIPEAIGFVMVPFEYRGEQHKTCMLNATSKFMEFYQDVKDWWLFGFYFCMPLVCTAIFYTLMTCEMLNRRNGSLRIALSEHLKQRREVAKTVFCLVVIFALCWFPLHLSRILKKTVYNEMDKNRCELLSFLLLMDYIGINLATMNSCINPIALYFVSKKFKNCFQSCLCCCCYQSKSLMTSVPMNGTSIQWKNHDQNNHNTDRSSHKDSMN
The assay can be described thus: Ability to inhibit [125I]ET1 binding to human cloned endothelin A receptor expressed on CHO cells. It is filed as cell-based.

Assay [3] concerns the target T2, Endothelin receptor type B (Homo sapiens, UniProt P24530).
T2 sequence (P24530 whole entry): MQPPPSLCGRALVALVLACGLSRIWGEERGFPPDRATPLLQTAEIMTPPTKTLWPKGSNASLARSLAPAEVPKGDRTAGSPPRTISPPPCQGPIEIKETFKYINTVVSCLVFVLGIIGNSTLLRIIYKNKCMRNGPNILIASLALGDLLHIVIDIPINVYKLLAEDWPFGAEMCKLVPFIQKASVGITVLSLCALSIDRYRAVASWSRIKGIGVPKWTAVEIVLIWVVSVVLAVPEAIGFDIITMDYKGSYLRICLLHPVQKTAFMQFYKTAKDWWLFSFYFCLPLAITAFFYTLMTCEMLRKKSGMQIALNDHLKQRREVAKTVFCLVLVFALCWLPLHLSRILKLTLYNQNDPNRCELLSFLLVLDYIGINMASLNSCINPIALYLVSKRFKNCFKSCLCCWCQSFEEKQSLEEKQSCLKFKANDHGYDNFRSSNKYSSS
The assay can be described thus: Ability to inhibit [125I]-ET-1 binding to human cloned ETB receptors expressed on CHO cells. The format is cell-based.

Assay [4] has as its target T3, Endothelin-1 receptor (Sus scrofa, UniProt Q29010).
T3 sequence (Q29010 whole entry): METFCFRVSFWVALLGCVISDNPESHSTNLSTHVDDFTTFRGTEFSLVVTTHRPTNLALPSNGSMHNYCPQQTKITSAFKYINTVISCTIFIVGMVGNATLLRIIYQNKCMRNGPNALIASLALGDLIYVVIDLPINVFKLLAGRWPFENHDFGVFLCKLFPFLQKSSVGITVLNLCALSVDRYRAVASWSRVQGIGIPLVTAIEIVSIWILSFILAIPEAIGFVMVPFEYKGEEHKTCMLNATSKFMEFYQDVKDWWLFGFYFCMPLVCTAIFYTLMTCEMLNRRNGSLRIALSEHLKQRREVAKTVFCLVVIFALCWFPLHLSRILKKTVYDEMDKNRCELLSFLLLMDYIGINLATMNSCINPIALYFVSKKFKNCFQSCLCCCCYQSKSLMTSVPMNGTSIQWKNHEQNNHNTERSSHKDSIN
The assay can be described thus: Ability to inhibit [125I]ET1 binding to endothelin A receptor in porcine aortic membrane. The format is cell membranes.

The target of assay [5] is T2, Endothelin receptor type B. The assay can be described thus: Ability to inhibit specific binding of [125I]- -ET-1 to human GH cells which express endothelin B receptor. It is filed as cell-based.

Turning to `Cc1ccc(-c2c(NS(=O)(=O)c3ccc(C(C)(C)C)cc3)ncnc2OCCOc2ncc(Br)cn2)cc1`, the concentration for half-maximal inhibition (IC50) in assay [1] was 0.039 nM; at Endothelin-1 receptor [4], under 0.001 nM. The results for the Ki (at Endothelin-1 receptor [2]; in assay [3]) were 0.0042 nM and 130 nM, respectively.

For `CSc1cnc(OCCOc2ncnc(NS(=O)(=O)c3ccc(C(C)(C)C)cc3)c2-c2ccc(CO)cc2)nc1`, the IC50 at Endothelin-1 receptor [4] was 0.04 nM.

Take `Cc1ccc(-c2c(NS(=O)(=O)c3ccc(C(C)(C)C(=O)O)cc3)ncnc2OCCOc2ncc(Br)cn2)cc1`: the IC50 at Endothelin-1 receptor [4] turned out to be 1.4 nM.

`CSc1cnc(OCCOc2ncnc(NS(=O)(=O)c3ccc(C(C)(C)C)cc3)c2-c2ccc(C(=O)O)cc2)nc1`: the 50% inhibitory concentration (IC50) at Endothelin-1 receptor [4] is over 10 nM.

As for `CSc1cnc(OCCOc2ncnc(NS(=O)(=O)c3ccc(C(C)(C)C)cc3)c2-c2ccc(C)cc2)nc1`, at Endothelin-1 receptor [4], the half-maximal inhibitory concentration (IC50) was under 0.001 nM.

Consider `Cc1ccc(-c2c(NS(=O)(=O)c3ccc(C(C)(C)C)cc3)ncnc2OCCOc2ncc(CO)cn2)cc1`, for which, in assay [5], the half-maximal inhibitory concentration (IC50) was found to be 31 nM.

Take `CC(C)(C)c1ccc(S(=O)(=O)Nc2ncnc(OCCOc3ncc(Br)cn3)c2-c2ccc(CO)cc2)cc1`: the IC50 at Endothelin-1 receptor [4] amounted to 0.04 nM.

On Endothelin-1 receptor [4], `Cc1ccc(-c2c(NS(=O)(=O)c3ccc(C(C)(C)C)cc3)ncnc2OCCOc2ncc(C(=O)O)cn2)cc1` returned an IC50 of over 10 nM.
